Data on eleven molecules can be found in patent US9114180B2, “Malodor neutralizing compositions containing acids and alicyclic ketones” (Robertet, Inc., priority 2012, dated 2015).

Experiment [1] in a line: Malodor evaluation panel, cat urine on cotton swatches. Further details: key to (Score of Ketone) − (Score of Combination) / (score of citric acid) − (score of combination): difference of malodor scores, 1 = very weak to 7 = very strong (control). The settings on record: for (Score of Ketone) − (Score of Combination) / (score of citric acid) − (score of combination): cat urine malodor, combination with citric acid; for Score of combination 1% + 1% / Score alone 1% (alicyclic ketone): remaining cat urine malodor; for Score of combination 1% + 1%: scale 1-7, ketone 1% + citric acid 1% in spray, average of 14; for Score alone 1% (alicyclic ketone): scale 1 very weak to 7 (control, very strong), ketone 1% in spray, average of 14 panelists. The text has this:
The source of the malodor tested was cat urine. […] A period of three minutes was allowed for the urine to be absorbed by the fabric. Onto each swatch, 3.0 grams of a composition was sprayed. As a control, 3.0 grams of water was sprayed on certain swatches. Each swatch was placed in the middle of a two by two foot (61×61 cm) cubicle and all doors were closed. Actual testing began after thirty minutes. Each member of the panel was asked to sniff the malodor control first and was notified that the control has a rating of 7—indicating very strong malodor. They were then asked to proceed to sniff the other samples and provide a rating for malodor remaining. Thus, the remaining malodor was evaluated on a sliding scale, with 1 being very weak malodor. The panelists were instructed to ignore any fragrance that they may detect and rate only the malodor. […] The fabric spray base was an aqueous solution containing 75% distilled water, 20% ethanol, and 5% of non-ionic surfactant. […] The scores reported are therefore the average of 14 replications. The ionones and irones tested were racemic mixtures of their respective α, β, and γ-isomers. The table sets forth what is believed to be the dominant isomer. Apparent duplications (Tests 5, 6 and 8; Tests 10 and 11) are tests on substances obtained from different sources, and have different mixtures of isomers. […] The ionones tested were mixtures of α, β and γ isomers; the table sets for the dominant isomer.

Experiment [2] can be described thus: Malodor evaluation panel, cigarette smoke on cotton swatches. As to conditions: for (Score of Acid) − (Score of Combination) / (Score of Ketone) − (Score of Combination): cigarette smoke malodor; for Score of Ketone Alone @ 1%: average of 14, Table 3. Here is the method:
The source of the malodor tested was cigarette smoke. Swatches of 100% untreated cotton fabric were cut into 15 cm (6-inch) squares and were placed in large plastic containers. Two cigarettes were smoked up inside the plastic containers containing the swatches with closed lids. The environment inside each closed container was allowed to equilibrate for 24 hours. Onto each swatch, 3.0 grams of a composition was sprayed. As a control, 3.0 grams of water was sprayed on certain swatches. Each swatch was placed in the middle of a two by two foot (61×61 cm) cubicle and all doors were closed. Actual testing began after thirty minutes. Each member of the panel was asked to sniff the malodor control first and was notified that the control has a rating of 7—indicating very strong malodor. They were then asked to proceed to sniff the other samples and provide a rating for malodor remaining. Thus, the remaining malodor was evaluated on a sliding scale, with 1 being very weak malodor. The panelists were instructed to ignore any fragrance that they may detect and rate only the malodor. […] Neodol 91-8 and the fabric spray base were the same as those described in Example 1.

Experiment [3] in a line: Malodor evaluation panel, synthetic bathroom malodor on cotton swatches. From the text:
A malodor evaluation panel of 14 persons was assembled and asked to evaluate the odor neutralizing effectiveness of citric acid and dihydro-β-ionone, either alone or in combination. The source of the malodor tested was synthetic bathroom malodor.
Swatches of 100% untreated cotton fabric were cut into 15 cm (6-inch) squares and were placed on weighing boats. 0.5 grams of synthetic bathroom malodor was pipetted onto each of the swatches. A period of three minutes was allowed for the malodor to be absorbed by the fabric.
Onto each swatch, 3.0 grams of a composition was sprayed. As a control, 3.0 grams of water was sprayed on certain swatches.
Each swatch was placed in the middle of a two by two foot (61×61 cm) cubicle and all doors were closed. Actual testing began after thirty minutes.
They were then asked to proceed to sniff the other samples and provide a rating for malodor remaining. Thus, the remaining malodor was evaluated on a sliding scale, with 1 being very weak malodor. The panelists were instructed to ignore any fragrance that they may detect and rate only the malodor.
For the spray compositions containing citric acid or dihydro-β-ionone alone, each spray composition (having a total weight of 20.00 g) consisted of:
For the spray composition containing both citric acid and dihydro-β-ionone, the spray composition (having a total weight of 20.00 g) consisted of:
Neodol 91-8 and the fabric spray base were the same as those described in Example 1.
Each panelist tested citric acid, dihydro-β-ionone, and their combinations. The scores reported are therefore the average of 14 replications.
The results are summarized in Table 6, in which the scores reported are the average of 14 replications.

Assay in experiment [4]: as above
The settings on record: for Score of Ketone Alone @ 1%: average of 14; for Score of Combination @ 1% + 1%: ketone 1% + undecylenic acid 1%; for (Score of Acid) − (Score of Combination) / (Score of Ketone) − (Score of Combination): synthetic bathroom malodor; for (Score of Acid) − (Score of Combination): acid = undecylenic acid; for (Score of Ketone) − (Score of Combination): combination with undecylenic acid.

The mark [5] stands for this setting: remaining cigarette smoke malodor, scale 1-7.
The mark [6] stands for this setting: remaining cigarette smoke malodor, scale 1-7, ketone 1% + citric acid 1%.
Where [7] appears, read: remaining synthetic bathroom malodor, scale 1-7, Table 6.
The mark [8] stands for this setting: remaining synthetic bathroom malodor, scale 1-7.

Where “and” joins values, the source holds several entries; their conditions need not be identical. Equal values may be shown once.

In the case of `CCC(C)(C)C1CCC(=O)CC1` [4-tert-pentylcyclohexanone], in experiment [1], the “(Score of Ketone) − (Score of Combination)” value (from here on “(Score of Ketone) −”) is 0.60, the “(score of citric acid) − (score of combination)” value (from here on “(score of citric acid) −”) is recorded as 0.50, the “Score of combination 1% + 1%” value is given as 2.90 and the “Score alone 1% (alicyclic ketone)” value turned out to be 3.50. In addition, in experiment [2] (acid = citric acid), the “(Score of Acid) − (Score of Combination)” value was 0.80. Also, the “(Score of Ketone) −” value in experiment [2] (combination with citric acid) turned out to be 0.30. In addition, the “Score of Ketone Alone @ 1%” value in experiment [2] (setting [5]) is reported as 3.40. The “Score of Combination @ 1% + 1%” value in experiment [2] (setting [6]) came to 3.10.
Turning to citric acid, the “Score of Citric Acid @ 1%” value in experiment [2] (remaining cigarette smoke malodor, scale 1-7, citric acid alone, in the test of that line) was 3.90 and 4.80; in experiment [3] (remaining synthetic bathroom malodor, scale 1-7, citric acid alone), 5.00.
Turning to `CC(=O)/C=C/C1C(C)=CCCC1(C)C` (stereo not drawn) [α-ionone], in experiment [1], the “(Score of Ketone) −” value was 1.10, the “(score of citric acid) −” value was 0.10, the “Score of combination 1% + 1%” value is on record as 3.10 and the “Score alone 1% (alicyclic ketone)” value was found to be 4.20.
Consider `CC(C)(C)C1CCCCC1=O` (centres unmarked) [2-tert-butylcyclohexanone], for which the “Score of Ketone Alone @ 1%” value in experiment [4] (setting [7]) is 4.50. In addition, in experiment [4] (setting [8]), the “Score of Combination @ 1% + 1%” value is recorded as 4.10. In experiment [4], the “(Score of Acid) − (Score of Combination)” value amounted to 0.20 and the “(Score of Ketone) −” value is 0.40.
As to `CC(=O)/C=C/C1=C(C)CCCC1(C)C` [β-ionone], in experiment [1], the “(Score of Ketone) −” value worked out at 0.70, the “(score of citric acid) −” value amounted to 1.00, the “Score of combination 1% + 1%” value is reported as 3.10 and the “Score alone 1% (alicyclic ketone)” value is 3.80. For the same molecule, the “Score of Ketone Alone @ 1%” value in experiment [4] (setting [7]) was 4.60. Moreover, the “Score of Combination @ 1% + 1%” value in experiment [4] (setting [8]) is on record as 3.30. Moreover, in experiment [4], the “(Score of Acid) − (Score of Combination)” value is given as 1.80 and the “(Score of Ketone) −” value is 1.30.
Turning to `CCC(=O)C=CC1C(C)=CCCC1(C)C` (centres unmarked) [1-(2,6,6-trimethyl-2-cyclohexen-1-yl)pent-1-en-3-one], in experiment [4] (setting [7]), the “Score of Ketone Alone @ 1%” value is 2.80. In addition, in experiment [4] (setting [8]), the “Score of Combination @ 1% + 1%” value was determined as 2.70. Further, in experiment [4], the “(Score of Acid) − (Score of Combination)” value worked out at 2.50 and the “(Score of Ketone) −” value is 0.10.
On to `CCC(=O)/C=C/C1=C(C)CCCC1(C)C` [methyl β-ionone], for which, in experiment [1], the “(Score of Ketone) −” value is 0.10, the “(score of citric acid) −” value was 0.90, the “Score of combination 1% + 1%” value turned out to be 3.40 and the “Score alone 1% (alicyclic ketone)” value is 3.50.
Turning to `CC(=O)CCC1=C(C)CCCC1(C)C` [dihydro-β-ionone], in experiment [1], the “(Score of Ketone) −” value is given as 1.40, the “(score of citric acid) −” value is recorded as 0.80, the “Score of combination 1% + 1%” value amounted to 2.50 and the “Score alone 1% (alicyclic ketone)” value was determined as 3.90. Also, the “Score of Ketone Alone @ 1%” value in experiment [4] (remaining synthetic bathroom malodor, scale 1-7, Table 5) came to 3.70. In experiment [3] (remaining synthetic bathroom malodor, scale 1-7, ketone 1% + citric acid 1%), the “Score of Combination @ 1% + 1%” value is 3.60. Moreover, the “(Score of Acid) − (Score of Combination)” value in experiment [3] (synthetic bathroom malodor, acid = citric acid) is on record as 1.40. Besides, the “(Score of Ketone) −” value in experiment [3] (synthetic bathroom malodor, combination with citric acid) was determined as 0.10.
In the case of methyl α-ionone, the “(Score of Acid) − (Score of Combination)” value in experiment [2] (acid = citric acid) is 1.10; in experiment [2] (acid = undecylenic acid), 1.40; in experiment [4], 1.60. Further, the results for the “(Score of Ketone) −” value in experiment [2] (combination with citric acid), in experiment [2] (combination with undecylenic acid) and in experiment [4] were 0.50, 0.10 and 0.40, respectively. Also, the “Score of Ketone Alone @ 1%” value in experiment [2] (setting [5]) came out at 4.20; in experiment [4] (setting [7]) it was 3.80. Also, the “Score of Combination @ 1% + 1%” value in experiment [2] (setting [6]) is reported as 3.70; in experiment [2] (remaining cigarette smoke malodor, scale 1-7, ketone 1% + undecylenic acid 1%) it was 2.80; in experiment [4] (setting [8]), 3.40.
As to `C=CCCCCCCCCC(=O)O` [undecylenic acid], the “Score of Undecylenic Acid @ 1%” value in experiment [2] (remaining cigarette smoke malodor, scale 1-7, undecylenic acid alone) is 4.20; in experiment [4] (remaining synthetic bathroom malodor, scale 1-7, undecylenic acid alone, in the test of that line), 5.00 and 4.30 and 5.10 and 5.20.
Regarding `CC(=O)/C=C/C1C(C)=CCC(C)C1(C)C` (stereo not drawn) [α-irone], in experiment [1], the “(Score of Ketone) −” value was 0.20, the “(score of citric acid) −” value is given as 0.00, the “Score of combination 1% + 1%” value was 3.70 and the “Score alone 1% (alicyclic ketone)” value is listed as 3.90.
